Patent US20180185801A1, “AMPHOTERIC ESTER SULFONATES” (Eastman Chemical Company, priority 2014, published 2018)
Read-outs that look alike come from different tables or passages of the source.

Legend:
[1] = Critical micelle concentration, fluorimetric determination with DPH dye; type: physicochemical
Protocol: The critical micelle concentration (CMC) was also determined for each compound. The CMC is the concentration of surfactant above which micelles spontaneously form. CMC is an important characteristic of a surfactant. At surfactant concentrations below the CMC, surface tension varies widely with surfactant concentration. At concentrations above the CMC, surface tension remains fairly constant. A lower CMC indicates less surfactant is needed to saturate interfaces and form micelles. Typical CMC values are less than 1 weight percent (10,000 ppm).
The fluorimetric determination of CMC described by Chattopadhyay and London (Analytical Biochemistry, Vol. 139, pp. 408-412 (1984)) was used to obtain the critical micelle concentrations found in Table 3 below. This method employs the fluorescent dye 1,6-diphenyl-1,3,5-hexatriene (DPH) in a solution of the surface-active agent. The analysis is based on differences in fluorescence upon incorporation of the dye into the interior of the micelles. As the solution exceeds CMC, a large increase in fluorescence intensity is observed.

[2] = buffer, pH 4.5
Protocol: The resulting mixture was placed in a 50° C. oven. Samples were taken periodically and analyzed for the amount of 3-(lauroyloxypropyldimethylammonio)-2-hydroxypropanesulfonate remaining by quantitative HPLC.
Samples were taken periodically and analyzed for the amount of 3-(cocoyloxypropyldimethylammonio)acetate remaining by quantitative HPLC.

[3] = Foaming properties, ASTM 1173-07 foam height test; type: physicochemical
Source text: The Standard Test Method for Foaming Properties of Surface-Active Agents (ASTM 1173-07) was used to determine the foaming properties of the ester sulfonates 1 described herein. This method generates foam under low-agitation conditions and is generally used for moderate- and high-foam surfactants. This test gathers data on initial foam height and foam decay.
Foam decay provides information on foam stability.
The apparatus for carrying out this test includes a jacketed column and a pipet. The jacketed column serves as a receiver, while the pipet delivers the surface-active solution. Solutions of each surface-active agent were prepared. The amphoteric ester sulphonate solution to be tested was added to the receiver (50 mL) and to the pipet (200 mL). The pipet was positioned above the receiver and opened. As the solution fell and made contact with the solution in the receiver, foam was generated. When the pipet was empty, the time was noted and an initial foam height was recorded. The foam height was recorded each minute for five minutes. Exact size specifications for the glassware can be found in ASTM 1173-07. The foam height results for each ester sulfonate 1 and representative standards are listed below in Tables 1 (0.1% concentration) and 2 (1% concentration).

Compound: CCCCCCCCCCCCOS(=O)(=O)O.N [ammonium lauryl sulfate]
- CMC [1]: 1.38 mM
- CMC (ppm) [1]: 392 ppm

Compound: CCCCCCCCCCCC(=O)OCCC[N+](C)(C)CC(O)CS(=O)(=O)[O-] (centres unmarked) [Example 31, 3-(lauroyloxypropyldimethylammonio)-2-hydroxypropanesulfonate]
- Percent Amphoteric Remaining ([2]; 0 h): 100%
- Percent Amphoteric Remaining ([2]; 336 h): 98%
- Percent Amphoteric Remaining ([2]; 1008 h): 98%
- Percent Amphoteric Remaining ([2]; 1344 h): 94%
- Percent Amphoteric Remaining ([2]; 2016 h): 95%

Compound: CCCCCCCCCCCCOS(=O)(=O)[O-].[Na+] [sodium lauryl sulfate]
- CMC [1]: 8.27 mM
- CMC (ppm) [1]: 2386 ppm

Compound: CCCCCCCCCCCC(=O)OC(C)CC[N+](C)(C)CC(O)CS(=O)(=O)[O-] (centres unmarked) [Example 27, 3-(3-(lauroyloxy)-1-butyldimethylammonio-1-yl)-2-hydroxypropanesulfonate]
- Foam height (cm) at time t (min) ([3]; 1 g/L (0.1 weight %), t = 0 min): 16.5 cm
- Foam height (cm) at time t (min) ([3]; 1 g/L (0.1 weight %), t = 1 min): 16.0 cm
- Foam height (cm) at time t (min) ([3]; 1 g/L (0.1 weight %), t = 2 min): 15.5 cm
- Foam height (cm) at time t (min) ([3]; 1 g/L (0.1 weight %), t = 3 min): 15.5 cm
- Foam height (cm) at time t (min) ([3]; 1 g/L (0.1 weight %), t = 4 min): 15.5 cm
- Foam height (cm) at time t (min) ([3]; 1 g/L (0.1 weight %), t = 5 min): 15.0 cm
- Foam height (cm) at time t (min) ([3]; 10 g/L (1.0 weight %), t = 0 min): 17.5 cm
- Foam height (cm) at time t (min) ([3]; 10 g/L (1.0 weight %), t = 1 min): 17.0 cm
- Foam height (cm) at time t (min) ([3]; 10 g/L (1.0 weight %), t = 2 min): 17.0 cm
- Foam height (cm) at time t (min) ([3]; 10 g/L (1.0 weight %), t = 3 min): 16.5 cm
- Foam height (cm) at time t (min) ([3]; 10 g/L (1.0 weight %), t = 4 min): 16.0 cm
- Foam height (cm) at time t (min) ([3]; 10 g/L (1.0 weight %), t = 5 min): 15.5 cm
- CMC [1]: 0.060 mM
- CMC (ppm) [1]: 26.4 ppm
